Source: patent publication US8217072B2, “Salinosporamides and methods for use thereof” (The Regents of the University of California, priority 2003, dated 2012)

Key:
[1] = Solubility in organic solvents; conditions: CHCl3, methanol, and other polar solvents like DMSO, acetone, acetonitrile, benzene, pyridine, N,N-dimethylformamide
[2] = test system: Staphylococcus aureus (methecillin resistant); experiment: Antibacterial screening, Staphylococcus aureus; type: cell-based; parameters: key to IC50: NSA = no significant activity
[3] = test system: Enterococcus faecium (vanomycin resistant); experiment: Antibacterial screening, Enterococcus faecium; type: cell-based; parameters: key to IC50: NSA = no significant activity
[4] = test system: Candida albicans(amphoterocin B resistant); experiment: Antifungal screening, Candida albicans (amphoterocin B resistant); type: cell-based; parameters: key: NSA = no significant activity

SMILES: C[C@@]12OC(=O)[C@]1([C@@H](O)[C@@H]1C=CCCC1)NC(=O)[C@@H]2CCCl [Salinosporamide A]
- solubility [1]: soluble
- antibacterial activity [2]: no antibacterial activity
- IC50 ([2]; methecillin resistant): NSA*
- antibacterial activity [3]: no antibacterial activity
- IC50 ([3]; vanomycin resistant): NSA*
- IC50 [4]: NSA*
